Source: patent US11607383B2, “Conductive polymer microneedle arrays for electronically-controlled drug release” (University of Washington, priority 2019, dated 2023)

What was measured:
[1] = test system: activated BV2 murine microglia; experiment: In vitro neuroinflammation assay (NO by Griess, cytokines by Luminex); type: cell-based; details: for NO release normalized to viable cells: DC experiment
Experimental: Bioactivity of electrically released drug was tested in an in vitro neuroinflammation model, in which drugs were released into wells of activated BV2 murine microglia. Healthy BV2 cells were seeded in 12-well plates at a density of 100,000 cells/well, in 1.6 mL of Dulbecco's modified eagle media (DMEM, Gibco) with 4.5 g/L D-glucose, 584 mg/L L-glutamine, and 110 mg/L sodium pyruvate (Invitrogen). The DMEM was supplemented with 5% fetal bovine serum (Invitrogen) and 2% anti-mycotic/anti-biotic (Invitrogen). Following seeding, the cells were incubated at 37° C. overnight to allow for settling and adhesion. Cells in activated treatment groups were activated by the replacement of media with fresh DMEM containing 0.005% interferon gamma (Ifn-γ, Invitrogen) and 1% lipopolysaccharide (LPS, ThermoFisher). Unactivated controls received normal fresh DMEM. Cells were then incubated for 1 hour before application of treatment in groups of n=6, in order to simulate realistic conditions in which there is a duration between traumatic SCI occurrence and access to treatment.
Treatment was applied transdurally from microneedles into the cell media though the transdural insert model as previously described in the In Vitro Transdural Release section. Diagrams of experimental conditions can be found in FIGS. 5A-5G. Microneedles were similarly applied manually, then underwent a potentiostatic or cyclic electrical stimulation. Direct current potential was applied for only 2 minutes to minimize electrical imbalance applied to the cells, while delivering sufficient drug to achieve therapeutic effect. Cyclic voltammetry was applied for 15 cycles, equating to 10 minutes. Epidural drug solution controls were similarly applied to the neuroinflammation model by pipetting over the transdural insert. In addition, a subdural solution control was introduced to the neuroinflammation studies in which the Dexa solution is applied directly to the cell media, bypassing the transdural insert.
Following 3 days of incubation, cell media was assayed for markers of inflammation. Free radical nitric oxide (NO) was quantified using a Griess reagent kit (Invitrogen) that detects NO reduced to nitrites in cell medias. Colorimetric NO quantification was performed following the protocols provided in the Griess reagent kit. Pro-inflammatory cytokines were quantified using a Luminex Magpix Multiplexing assay (Millipore). Cytokines quantified include interleukin-1-beta (IL-1β), interleukin-6 (IL-6), and tumor necrosis factor alpha (TNF-α). Cells treated in the CV stimulated experiment were additionally quantified for the release of monocyte chemoattractant protein 1 (MCP-1). The Luminex multiplexing assays were performed following the protocol provided in the kit.

BV2 murine microglia = type: cell-based; details: subdural solution, DC experiment, 3 days incubation
Experimental: Bioactivity of electrically released drug was tested in an in vitro neuroinflammation model, in which drugs were released into wells of activated BV2 murine microglia. Healthy BV2 cells were seeded in 12-well plates at a density of 100,000 cells/well, in 1.6 mL of Dulbecco's modified eagle media (DMEM, Gibco) with 4.5 g/L D-glucose, 584 mg/L L-glutamine, and 110 mg/L sodium pyruvate (Invitrogen). The DMEM was supplemented with 5% fetal bovine serum (Invitrogen) and 2% anti-mycotic/anti-biotic (Invitrogen). Following seeding, the cells were incubated at 37° C. overnight to allow for settling and adhesion. Cells in activated treatment groups were activated by the replacement of media with fresh DMEM containing 0.005% interferon gamma (Ifn-γ, Invitrogen) and 1% lipopolysaccharide (LPS, ThermoFisher). Unactivated controls received normal fresh DMEM. Cells were then incubated for 1 hour before application of treatment in groups of n=6, in order to simulate realistic conditions in which there is a duration between traumatic SCI occurrence and access to treatment. […]
Cell viability was measured using an MTS assay (CellTiter 96® AQueous One Solution Cell Proliferation Assay, Promega). […] The incubation was followed by detection of absorbance at 490 nm. The MTS absorbance in each group was normalized to the absorbance of the unactivated group.

[2] = epidural solution, CV experiment

SMILES: C[C@@H]1C[C@H]2[C@@H]3CCC4=CC(=O)C=C[C@]4(C)[C@@]3(F)[C@@H](O)C[C@]2(C)[C@@]1(O)C(=O)COP(=O)(O)O [Dexa solution, dexamethasone phosphate]
- MCP-1 release normalized for viable cells [1, 2]: did not see the same decrease
- NO release normalized for viable cells [1, 2]: did not see similar reductions in NO release
- NO release normalized to viable cells ([1]; epidural solution): did not demonstrate the same decrease
- NO release normalized to viable cells ([1]; subdural solution): significant decrease
- relative cell viability (MTS) (BV2 murine microglia): slight decreases in viability, though not significant
